Assay results as given in PubChem BioAssay (NCI).
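All cell lines were grown in 96-well plates and treated with compound for 48 hours. GI50 marks 50% less growth. The concentration for full growth arrest is given as TGI.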

Legend:
Test in all cases: NCI-60 cell line screen, 48 h
SF-295 CNS = tested on: SF-295 CNS
NCI/ADR-RES ovarian = tested on: NCI/ADR-RES ovarian
UACC-62 melanoma = tested on: UACC-62 melanoma
HCC-2998 colon = tested on: HCC-2998 colon
SNB-19 CNS = tested on: SNB-19 CNS
UO-31 renal = tested on: UO-31 renal
SN12C renal = tested on: SN12C renal
SR leukemia = tested on: SR leukemia

Structure (SMILES) | GI50 (SF-295 CNS) [µM] | TGI (SF-295 CNS) [µM] | GI50 (NCI/ADR-RES ovarian) [µM] | TGI (NCI/ADR-RES ovarian) [µM] | GI50 (UACC-62 melanoma) [µM] | TGI (UACC-62 melanoma) [µM] | GI50 (HCC-2998 colon) [µM] | TGI (HCC-2998 colon) [µM] | GI50 (SNB-19 CNS) [µM] | TGI (SNB-19 CNS) [µM] | GI50 (UO-31 renal) [µM] | TGI (UO-31 renal) [µM] | GI50 (SN12C renal) [µM] | TGI (SN12C renal) [µM] | GI50 (SR leukemia) [µM] | TGI (SR leukemia) [µM]
Nc1c(C(=O)Nc2cccc3ccccc23)sc2nc3c(cc12)CCCCCC3 | 1.39 | > 50 | 0.784 | > 50 | 1.62 | > 50 | 2.64 | > 50 | 2.62 | > 50 | 5.6 | > 50 | 3.4 | > 50 | 0.429 | > 50
CCOc1ccc(-n2cc(-c3ccc(N(C)C)cc3)[n+]3c2CCCCC3)cc1 | 0.618 | 5.43 | 31.1 | > 100 | 0.199 | 13.5 | 0.188 | > 100 | 0.452 | > 100 | 4.94 | 68.5 | 0.891 | 19 | 0.978 | 29.4
CCCCCCCCCCCC(=O)[O][Sn]([CH2]CCC)([CH2]CCC)[CH2]CCC | 0.0679 | 0.177 | 0.0703 | 0.236 | 0.0515 | 0.11 | 0.0669 | 0.187 | 0.0859 | 0.228 | 0.0347 | 0.0849 | 0.0767 | 0.221 | – | –
O=C(O)c1cccc(F)c1C(=O)c1ccc2ccccc2c1 | – | > 100 | – | > 100 | – | > 100 | – | – | – | > 100 | – | > 100 | – | > 100 | – | –
COC(=O)c1cccc(COc2ccc([N+](=O)[O-])cc2Cl)c1 | – | > 100 | – | > 100 | – | > 100 | – | – | – | > 100 | – | > 100 | – | > 100 | – | > 100
CCCCCCOc1ccc(/C=N/Nc2cc(C)nc3ccc(Br)cc23)cc1 | 1.72 | 3.2 | 1.9 | 3.84 | 1.74 | 3.24 | 2.03 | 3.56 | 1.83 | 3.43 | 1.53 | 2.89 | 1.69 | 3.17 | 0.396 | 1.85
OC(c1cc2c(Cl)cc(Cl)cc2c2cc(C(F)(F)F)ccc12)C1CCCCN1 (stereo not drawn) | – | – | 1.77 | 3.64 | 1.78 | 3.42 | 1.64 | 3.24 | – | – | 1.41 | 2.99 | 1.8 | 3.38 | 1.49 | 3.95
O=C1/C=C/[C@@H](O)[C@@H]2C[C@@H](O)C[C@H]2/C=C/CCCCO1 | 0.774 | > 100 | 0.475 | > 54.1 | 0.416 | > 100 | 0.32 | 1.76 | 0.749 | > 100 | 0.304 | > 38.1 | 0.954 | > 100 | 8.61 | > 100
Nc1c2c(c(O)c3c1=C(CO)C=N3)=NCCS2=O (stereo not drawn) | 2.12 | 4.12 | 2.51 | 8.99 | 1.71 | 3.39 | 1.21 | 2.81 | 1.59 | 3.07 | 1.68 | 3.5 | 1.66 | 3.57 | 1.76 | 9.33
Clc1ccc2c(NCCCNCc3ccc4c(c3)OCO4)ccnc2c1 | 2.34 | 7.11 | 4 | 18.4 | 2.02 | 3.89 | 2.03 | 5.25 | 4.79 | 16.9 | 1.41 | 3.1 | 8.26 | 21.6 | 1.99 | 4.67
CN(Cc1cccc(Cl)c1)c1ccc(CO)c(Cl)c1 | 3.7 | 32.1 | 14.6 | 44.1 | 0.321 | 3.75 | 13.7 | 34.1 | 27.3 | > 100 | 8.41 | 37.4 | 14.3 | 37.2 | 22.4 | 72.8
COc1ccc(S(=O)(=O)Nc2c(/C=C\c3cc(OC)c(OC)c(OC)c3)ccc(OC)c2O)cc1OC | 0.242 | > 100 | 1.58 | > 100 | 0.053 | > 100 | 0.306 | 5.57 | 0.506 | > 100 | 0.864 | > 100 | 0.484 | > 100 | 0.0661 | > 75.9
CC(=O)O[C@H]1CC[C@@]2(C)[C@@H](CC[C@@H]3[C@@H]2CC(=O)[C@@]2(C)[C@H]3C[C@@H]3CC(C)=CC(=O)[C@@H]32)C1 | – | > 100 | – | > 100 | – | > 100 | – | > 100 | – | > 100 | – | > 100 | – | > 100 | – | > 100
Nc1c(S(=O)(=O)O)cc2c(c1Cl)C(=O)c1ccccc1C2=O | > 100 | > 100 | > 100 | > 100 | > 100 | > 100 | > 100 | > 100 | > 100 | > 100 | > 100 | > 100 | > 100 | > 100 | > 100 | > 100
CC(NC(=O)C1(N)CCCC1)C(=O)O (stereo not drawn) | – | > 100 | – | > 100 | – | > 100 | – | > 100 | – | > 100 | – | > 100 | – | > 100 | – | > 100
C=C(C=O)[C@@H]1CC=C(C=O)CC1 | 12 | 97.3 | 3.89 | > 100 | 3.14 | 12.2 | 11.2 | 93.5 | 17.4 | 71.2 | 5.3 | > 76 | 4.31 | 33.9 | 5.48 | > 100
Cn1cc(C2=C(c3cn(CCCN/C(N)=N\[N+](=O)[O-])c4ccccc34)C(=O)NC2=O)c2ccccc21 | 3.74 | > 23.6 | > 25 | > 25 | 3.1 | 7.59 | 6.72 | 20.4 | 4.4 | 19 | 8.71 | 24.7 | 2.65 | 16.6 | 0.898 | 3.96
COc1cccc(/C=N/[N-]C(N)=O)c1[O-].[Cu+2].c1ccncc1 | – | 62.4 | – | – | – | 41.1 | – | > 100 | – | 25 | – | 44.3 | – | 46.7 | – | –

Structure (SMILES) | GI50 (SF-295 CNS) [µM] | TGI (SF-295 CNS) [µM] | GI50 (NCI/ADR-RES ovarian) [µM] | TGI (NCI/ADR-RES ovarian) [µM] | GI50 (UACC-62 melanoma) [µM] | TGI (UACC-62 melanoma) [µM] | GI50 (HCC-2998 colon) [µM] | TGI (HCC-2998 colon) [µM] | GI50 (SNB-19 CNS) [µM] | TGI (SNB-19 CNS) [µM] | GI50 (UO-31 renal) [µM] | TGI (UO-31 renal) [µM] | GI50 (SN12C renal) [µM] | TGI (SN12C renal) [µM] | GI50 (SR leukemia) [µM] | TGI (SR leukemia) [µM]
Cc1nc(N(C)C)nc(-c2cccc(-c3ccn(CCN(C)C)n3)c2)c1C | – | – | > 20 | > 20 | > 20 | > 20 | > 20 | > 20 | – | – | 9.63 | > 20 | > 20 | > 20 | > 20 | > 20
COc1ccccc1NC(=O)C(=O)C(C#N)CC(C)(C)C=O (stereo not drawn) | – | > 100 | – | > 100 | – | > 100 | – | > 100 | – | – | – | > 100 | – | > 100 | – | > 100
Nc1ncnc2c1c(-c1ccc(Oc3ccccc3)cc1)nn2C[C@H]1SSC[C@H]1O | 0.678 | 3.19 | 1.77 | 4.87 | 0.0377 | 0.145 | 0.388 | 2.03 | 0.51 | 20.1 | 0.468 | 2.77 | 1.4 | 4.67 | 0.0289 | 0.127
O=C(/C=C/c1ccco1)c1cccc(Nc2nc(Nc3ccccc3)nc(Nc3ccccc3)n2)c1 | 2.94 | > 25.3 | 36.3 | > 100 | 48.8 | > 100 | 25.7 | > 100 | > 100 | > 100 | 3.97 | > 69.6 | 35 | > 100 | 5.01 | > 24.1
Nc1nc(-c2ccccc2Cl)cc(-c2ccc(Cl)cc2Cl)n1 | – | – | 14.8 | > 100 | 5.93 | 44.2 | 7.19 | 44 | 16.1 | > 100 | 13.5 | > 100 | 13.1 | > 100 | 4.1 | > 100
COc1cccc(-c2nn(C)c3sc(C(=O)NCCN4CCN(c5ccccc5F)CC4)cc23)c1 | 4.85 | 29 | 13.8 | > 100 | 10.5 | 84.5 | 7.06 | > 100 | 21 | > 100 | 4.56 | 47.8 | 79.5 | > 100 | 5.43 | > 100
COc1cc(Cl)c(C)cc1NC(=O)c1cc2ccccc2cc1O | 2.43 | 7.91 | 2.55 | 9.04 | 1.49 | 8.14 | 3.31 | 12.8 | 4.34 | 20.7 | 1.29 | 10.6 | 1.68 | 10.1 | 2.79 | 11.9
O=C1COCCN1c1ccc(NCc2cn(Cc3ccc(F)cc3)c3ccccc23)cc1 | 0.927 | 27.5 | 5.44 | 45.3 | 0.0978 | 0.617 | 11.1 | 51.7 | 19.4 | > 100 | 2.42 | 18.2 | 4.08 | > 83.7 | 3.84 | > 100
COc1ccc2c(C(=O)NCCCCCC(=O)O)cc3cc4c(cc3c2c1)OCO4 | > 100 | > 100 | > 100 | > 100 | 83 | > 100 | > 100 | > 100 | > 100 | > 100 | – | – | > 100 | > 100 | – | –
c1ccc2c(c1)-c1nc3ccccc3cc1C2N1CCOCC1 (stereo not drawn) | – | > 100 | – | > 100 | – | > 100 | – | – | – | > 100 | – | – | – | > 100 | – | > 100
COc1ccc2nc3c(cc2c1)C(=O)CC(C(F)(F)F)C3 (stereo not drawn) | 1.41 | 23.3 | 0.367 | > 100 | 0.602 | > 100 | 4.14 | 99.1 | 3.61 | > 100 | 1.36 | > 100 | 0.805 | > 100 | 0.262 | > 100
Cc1cc(=O)[nH]c2c1C(=O)C(=O)C=C2 | 24.1 | 52.8 | 18.4 | 40.7 | 36.4 | > 100 | > 100 | > 100 | 42.7 | > 100 | 77.3 | > 100 | 16.8 | 32.7 | – | –
COc1ccc(/C=C/c2cnnc3ccccc23)cc1OC | – | > 10 | – | > 10 | – | > 10 | – | > 10 | – | > 10 | – | – | – | > 10 | – | –
COc1cc(/C=C/C(=O)c2ccc(SC)cc2)cc(OC)c1OC | – | – | 4.68 | 26.4 | 3.46 | 13.5 | 18 | 33.2 | 12.6 | 26.4 | 10.8 | 23 | 3.17 | 8.98 | 3.56 | > 100
COc1cc(C2C(Cl)C(=O)N2NC(=O)c2ccccc2O)cc(OC)c1OC (stereo not drawn) | – | 8.43 | – | – | – | > 10 | – | – | – | > 10 | – | > 10 | – | – | – | > 10
COc1cc(Nc2nccc(-c3cnn4ncccc34)n2)cc(OC)c1 | 0.0572 | 0.721 | 0.0937 | 2.26 | 0.0532 | 0.223 | 0.104 | 1.71 | 0.0836 | > 25 | 0.055 | 0.196 | 0.0942 | > 25 | – | –
C/C(=N\O)c1ccc(Nc2cc(-c3ccccc3)nc3c(O)cccc23)cc1 | 5.24 | 18.3 | 8.54 | 35.5 | 13.4 | 27.1 | 10.6 | 23.4 | – | – | 14.8 | 33.7 | 11.9 | 27.6 | 1.27 | 24.1
CCCCCCCCCCCCCCCc1nc(SCC(=O)O)n[nH]1 | – | > 100 | – | – | – | > 100 | – | > 100 | – | > 100 | – | > 100 | – | > 100 | – | > 100
